Laboratory results taken from US8969363B2, “Heterocyclic compounds and uses thereof” (Infinity Pharmaceuticals, Inc., priority 2011, dated 2015).

What was measured:
PI3Kβ = experiment: PI3 Kinase HTRF assay, PI3Kβ; format: biochemical, human; details: 10 μM PIP2, 10 μM ATP; 'Greater than 10 μM' and 'Greater than 1 μM to 10 μM'; read-out: PI3K β IC50
Source text: (§1) A PI3-Kinase HTRF® assay kit (cat No. 33-016) purchased from Millipore Corporation was used to screen compounds provided herein. This assay used specific, high affinity binding of the GRP1 pleckstrin homology (PH) domain to PIP3, the product of a Class 1A or 1B PI3 Kinase acting on its physiological substrate PIP2. During the detection phase of the assay, a complex was generated between the GST-tagged PH domain and biotinylated short chain PIP3. The biotinylated PIP3 and the GST-tagged PH domain recruited fluorophores (Streptavidin-Allophycocyanin and Europium-labeled anti-GST respectively) to form the fluorescence resonance energy transfer (FRET) architecture, generating a stable time-resolved FRET signal. The FRET complex was disrupted in a competitive manner by non-biotinylated PIP3, a product formed in the PI3 Kinase assay.
PI3 Kinase α, β, γ and δ activity was assayed using the PI3 Kinase HTRF® assay kit (catalogue No. 33-016) purchased from Millipore Corporation. […] Purified recombinant PI3K enzyme was used to catalyze the phosphorylation of phosphatidylinositol 4,5-bisphosphate (PIP2 at 10 μM) to phosphatidylinositol 3,4,5-trisphosphate (PIP3) in the presence of 10 μM ATP. The assay was carried out in 384-well format and detected using a Perkin Elmer EnVision Xcite Multilabel Reader. Emission ratios were converted into percent inhibitions and imported into GraphPad Prism software. […] IC50 values were determined using a nonlinear regression model available in GraphPad Prism 5. […]

PI3Kα = target: T1, PI3Kα (Homo sapiens, UniProt P42336); experiment: PI3 Kinase HTRF assay, PI3Kα; format: biochemical; details: 10 μM PIP2, 10 μM ATP; 'Greater than 10 μM' and 'Greater than 1 μM to 10 μM'; read-out: PI3K α IC50
T1 construct: purchased Millipore Corporation 14-602-K
T1 sequence (P42336 whole entry): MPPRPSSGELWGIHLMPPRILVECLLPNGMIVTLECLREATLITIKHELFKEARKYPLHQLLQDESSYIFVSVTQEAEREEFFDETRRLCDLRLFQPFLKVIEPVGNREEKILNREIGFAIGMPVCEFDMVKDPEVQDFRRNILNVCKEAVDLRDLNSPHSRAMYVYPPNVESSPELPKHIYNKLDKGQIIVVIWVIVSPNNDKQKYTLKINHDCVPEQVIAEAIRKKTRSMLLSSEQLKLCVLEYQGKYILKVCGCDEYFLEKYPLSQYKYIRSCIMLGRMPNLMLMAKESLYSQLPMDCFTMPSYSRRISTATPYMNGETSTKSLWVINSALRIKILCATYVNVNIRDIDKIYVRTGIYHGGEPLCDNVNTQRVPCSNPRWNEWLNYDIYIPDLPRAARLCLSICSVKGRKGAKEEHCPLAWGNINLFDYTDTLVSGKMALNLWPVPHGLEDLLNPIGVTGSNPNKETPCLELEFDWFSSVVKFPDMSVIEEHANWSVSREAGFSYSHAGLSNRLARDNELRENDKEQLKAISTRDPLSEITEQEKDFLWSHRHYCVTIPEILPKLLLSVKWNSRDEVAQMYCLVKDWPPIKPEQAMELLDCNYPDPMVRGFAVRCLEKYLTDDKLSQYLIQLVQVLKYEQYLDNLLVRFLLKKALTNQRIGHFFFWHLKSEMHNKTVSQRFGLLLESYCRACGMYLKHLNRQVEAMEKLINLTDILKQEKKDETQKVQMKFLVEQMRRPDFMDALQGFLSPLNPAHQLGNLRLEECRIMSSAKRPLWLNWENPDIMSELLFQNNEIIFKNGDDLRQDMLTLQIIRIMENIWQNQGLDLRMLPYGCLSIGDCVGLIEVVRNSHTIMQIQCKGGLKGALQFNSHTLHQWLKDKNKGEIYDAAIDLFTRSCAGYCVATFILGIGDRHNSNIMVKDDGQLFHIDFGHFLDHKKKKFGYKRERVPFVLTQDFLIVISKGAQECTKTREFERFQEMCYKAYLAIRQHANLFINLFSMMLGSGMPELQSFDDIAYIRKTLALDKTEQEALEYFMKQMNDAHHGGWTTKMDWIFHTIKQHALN
T1 sequence (P27986 whole entry partner): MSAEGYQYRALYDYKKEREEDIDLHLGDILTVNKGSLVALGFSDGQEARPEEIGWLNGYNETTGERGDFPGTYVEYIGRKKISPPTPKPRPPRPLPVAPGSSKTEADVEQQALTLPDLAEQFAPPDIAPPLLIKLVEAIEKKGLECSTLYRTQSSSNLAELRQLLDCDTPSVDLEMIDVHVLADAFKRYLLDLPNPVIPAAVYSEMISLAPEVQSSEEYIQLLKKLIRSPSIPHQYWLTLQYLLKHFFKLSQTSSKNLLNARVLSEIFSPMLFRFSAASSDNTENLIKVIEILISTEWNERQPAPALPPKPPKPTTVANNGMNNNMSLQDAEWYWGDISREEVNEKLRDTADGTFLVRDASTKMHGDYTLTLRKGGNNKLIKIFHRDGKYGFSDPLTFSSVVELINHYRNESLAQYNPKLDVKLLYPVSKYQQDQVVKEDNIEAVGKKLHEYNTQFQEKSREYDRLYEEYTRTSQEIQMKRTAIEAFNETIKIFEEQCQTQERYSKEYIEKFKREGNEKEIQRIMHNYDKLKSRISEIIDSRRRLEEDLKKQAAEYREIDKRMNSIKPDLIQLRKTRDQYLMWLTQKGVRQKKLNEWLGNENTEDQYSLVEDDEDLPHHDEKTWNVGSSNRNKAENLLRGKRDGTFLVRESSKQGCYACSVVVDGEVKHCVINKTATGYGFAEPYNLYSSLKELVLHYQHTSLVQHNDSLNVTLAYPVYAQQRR
Source text: as §1
(§2) PI3 Kinase α, β, γ and δ activity was assayed using the PI3 Kinase HTRF® assay kit (catalogue No. 33-016) purchased from Millipore Corporation. Purified recombinant PI3Kα (catalogue No. 14-602-K), PI3Kβ (catalogue No. 14-603-K), PI3Kγ (catalogue No. 14-558-K) and PI3Kδ (catalogue No. 14-604-K) were obtained from Millipore Corporation. Purified recombinant PI3K enzyme was used to catalyze the phosphorylation of phosphatidylinositol 4,5-bisphosphate (PIP2 at 10 μM) to phosphatidylinositol 3,4,5-trisphosphate (PIP3) in the presence of 10 μM ATP. The assay was carried out in 384-well format and detected using a Perkin Elmer EnVision Xcite Multilabel Reader. Emission ratios were converted into percent inhibitions and imported into GraphPad Prism software. The concentration necessary to achieve inhibition of enzyme activity by 50% (IC50) was calculated using concentrations ranging from 20 μM to 0.1 nM (12-point curve). IC50 values were determined using a nonlinear regression model available in GraphPad Prism 5. […]

Balb/c splenic B cells = experiment: B cell activation and proliferation assay (Alamar Blue); format: cell-based; details: Mus musculus, 'Less than 100 nM'
Description: The ability of one or more subject compounds to inhibit B cell activation and proliferation is determined according to standard procedures known in the art. For example, an in vitro cellular proliferation assay is established that measures the metabolic activity of live cells. The assay is performed in a 96 well microtiter plate using Alamar Blue reduction. Balb/c splenic B cells are purified over a Ficoll-Paque™ PLUS gradient followed by magnetic cell separation using a MACS B cell Isolation Kit (Miletenyi). Cells are plated in 90 μl at 50,000 cells/well in B Cell Media (RPMI+10% FBS+Penn/Strep+50 μM bME+5 mM HEPES). A compound provided herein is diluted in B Cell Media and added in a 10 μl volume. Plates are incubated for 30 min at 37° C. and 5% CO2 (0.2% DMSO final concentration). A 50 μl B cell stimulation cocktail is then added containing either 10 μg/ml LPS or 5 μg/ml F(ab′)2 Donkey anti-mouse […] plus 2 ng/ml recombinant mouse IL4 in B Cell Media. Plates are incubated for 72 hours at 37° C. and 5% CO2. A volume of 15 μL of Alamar Blue reagent is added to each well and plates are incubated for 5 hours at 37° C. and 5% CO2. Alamar Blue fluoresce is read at 560Ex/590Em, and IC50 or EC50 values are calculated using GraphPad Prism 5.

PI3Kγ = target: T2, PI3Kγ (Homo sapiens, UniProt P48736); experiment: PI3 Kinase HTRF assay, PI3Kγ; format: biochemical; details: 10 μM PIP2, 10 μM ATP; 'Greater than 10 μM' and 'Greater than 1 μM to 10 μM'; read-out: PI3K γ IC50
T2 construct: purchased Millipore Corporation 14-558-K
T2 sequence (P48736 whole entry): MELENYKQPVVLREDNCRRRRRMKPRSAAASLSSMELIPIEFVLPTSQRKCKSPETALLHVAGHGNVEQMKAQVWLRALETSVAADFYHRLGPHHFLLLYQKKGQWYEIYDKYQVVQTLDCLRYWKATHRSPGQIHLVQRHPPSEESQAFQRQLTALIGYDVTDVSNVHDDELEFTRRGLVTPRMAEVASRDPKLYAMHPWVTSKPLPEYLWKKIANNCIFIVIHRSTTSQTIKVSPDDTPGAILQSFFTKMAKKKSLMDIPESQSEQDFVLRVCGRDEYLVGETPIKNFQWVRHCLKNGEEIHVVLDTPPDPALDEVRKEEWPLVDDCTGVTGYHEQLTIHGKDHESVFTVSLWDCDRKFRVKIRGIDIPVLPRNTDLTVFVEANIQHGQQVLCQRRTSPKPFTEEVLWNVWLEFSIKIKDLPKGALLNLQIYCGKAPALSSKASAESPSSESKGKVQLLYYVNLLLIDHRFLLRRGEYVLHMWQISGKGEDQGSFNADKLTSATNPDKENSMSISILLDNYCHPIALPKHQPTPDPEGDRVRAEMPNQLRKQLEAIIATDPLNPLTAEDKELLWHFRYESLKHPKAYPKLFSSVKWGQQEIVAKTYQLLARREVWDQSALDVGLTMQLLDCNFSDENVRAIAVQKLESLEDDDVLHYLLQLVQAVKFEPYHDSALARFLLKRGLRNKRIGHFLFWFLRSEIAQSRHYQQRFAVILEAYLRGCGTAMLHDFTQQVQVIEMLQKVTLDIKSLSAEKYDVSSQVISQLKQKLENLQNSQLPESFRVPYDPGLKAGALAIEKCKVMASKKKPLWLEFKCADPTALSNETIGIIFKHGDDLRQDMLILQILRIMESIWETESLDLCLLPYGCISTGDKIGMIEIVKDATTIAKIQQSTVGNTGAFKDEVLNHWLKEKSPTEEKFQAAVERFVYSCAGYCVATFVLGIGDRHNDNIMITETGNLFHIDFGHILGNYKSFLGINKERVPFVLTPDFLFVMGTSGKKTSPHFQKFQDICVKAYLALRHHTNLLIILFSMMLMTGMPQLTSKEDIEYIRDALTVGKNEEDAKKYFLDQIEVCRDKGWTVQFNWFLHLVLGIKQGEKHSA
Source text: as §1, §2

Sequence of PI3Kβ (Q8BTI9 whole entry, the tested form may be a part): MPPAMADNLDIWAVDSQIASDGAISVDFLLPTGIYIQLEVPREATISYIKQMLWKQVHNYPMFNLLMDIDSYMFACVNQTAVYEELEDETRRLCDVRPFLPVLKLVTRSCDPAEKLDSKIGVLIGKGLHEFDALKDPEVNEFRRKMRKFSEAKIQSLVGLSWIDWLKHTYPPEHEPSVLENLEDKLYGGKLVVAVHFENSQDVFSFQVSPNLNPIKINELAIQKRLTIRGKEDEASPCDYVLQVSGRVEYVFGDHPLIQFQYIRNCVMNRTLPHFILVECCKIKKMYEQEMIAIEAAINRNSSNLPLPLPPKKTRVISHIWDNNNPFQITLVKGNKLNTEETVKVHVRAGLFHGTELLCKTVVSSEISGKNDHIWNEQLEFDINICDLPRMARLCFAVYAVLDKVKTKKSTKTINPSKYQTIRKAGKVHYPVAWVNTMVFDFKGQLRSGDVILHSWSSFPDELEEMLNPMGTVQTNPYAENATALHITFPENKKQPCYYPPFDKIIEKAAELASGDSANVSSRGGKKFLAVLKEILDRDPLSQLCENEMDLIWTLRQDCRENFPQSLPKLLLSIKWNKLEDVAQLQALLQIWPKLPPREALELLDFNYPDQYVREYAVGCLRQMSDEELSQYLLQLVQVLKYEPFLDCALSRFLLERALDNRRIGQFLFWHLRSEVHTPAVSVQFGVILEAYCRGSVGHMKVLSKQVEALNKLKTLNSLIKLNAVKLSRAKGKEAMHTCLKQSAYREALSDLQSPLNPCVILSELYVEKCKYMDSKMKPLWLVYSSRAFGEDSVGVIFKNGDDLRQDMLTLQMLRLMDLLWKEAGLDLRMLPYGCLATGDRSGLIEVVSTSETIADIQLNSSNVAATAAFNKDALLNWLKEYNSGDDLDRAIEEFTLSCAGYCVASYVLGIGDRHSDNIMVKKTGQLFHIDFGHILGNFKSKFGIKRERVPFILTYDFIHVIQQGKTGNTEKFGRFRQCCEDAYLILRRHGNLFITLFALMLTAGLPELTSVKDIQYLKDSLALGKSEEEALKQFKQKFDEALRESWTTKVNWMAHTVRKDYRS

SMILES | IC50 (PI3Kβ) [µM] | IC50 (PI3Kα) [µM] | IC50 (PI3Kγ) [µM] | EC50 (Balb/c splenic B cells) [µM]
C[C@H](Nc1ccnn2ccnc12)c1cc2cccc(-c3cnn(C)c3)c2c(=O)n1C1CC1 [II-45] | 1 to 10 | 1 to 10 |  | < 0.1
C[C@H](Nc1ccnn2ccnc12)c1cc2cccc(-c3cnn(C)c3)c2c(=O)n1-c1ccccc1 [II-18] | 1 to 10 | 1 to 10 |  | < 0.1
C[C@H](Nc1ccnc2cccnc12)c1cc2cccc(-c3cnn(C)c3)c2c(=O)n1-c1ccccc1 [Compound I-51] | 1 to 10 | 1 to 10 |  | < 0.1
C[C@H](Nc1ccnc2ccnn12)c1cc2cccc(Cl)c2c(=O)n1-c1cccc(F)c1 [II-4] | 1 to 10 | 1 to 10 |  | < 0.1
C[C@H](Nc1ncnc2cccnc12)c1cc2ccc(F)cc2c(=O)n1-c1ccccc1 [Compound I-18] | 1 to 10 | 1 to 10 |  | < 0.1
C[C@H](Nc1nc(N)nc2cccnc12)c1cc2cccc(-c3cnn(C)c3)c2c(=O)n1-c1cccc(F)c1 [Compound I-38] | > 10 | 1 to 10 |  | < 0.1
C[C@H](Nc1ncnc2cccnc12)c1cc2cccc(-c3ccc(N)nc3)c2c(=O)n1-c1ccccc1 [Compound I-43] | > 10 | 1 to 10 |  | < 0.1
C[C@H](Nc1c(C#N)cnc2cccnc12)c1cc2cccc(Cl)c2c(=O)n1-c1ccccc1 [Compound I-53] | > 10 |  | 1 to 10 | 
COc1ncc(-c2cccc3cc([C@H](C)Nc4ncnc5cccnc45)n(-c4cccc(F)c4)c(=O)c23)cn1 [Compound I-73] | > 10 | 1 to 10 |  | < 0.1
C[C@H](Nc1nc(N)nc2cccnc12)c1cc2cccc(-c3ccnnc3)c2c(=O)n1-c1cccc(F)c1 [Compound I-80] | > 10 | 1 to 10 |  | < 0.1
C[C@H](Nc1c(C#N)cnc2cccnc12)c1cc2cccc(Cl)c2c(=O)n1-c1cccc(F)c1 [Compound I-54] | > 10 |  | 1 to 10 | 
C[C@H](Nc1ccnc2ccnn12)c1cc2cccc(-c3cnn(C)c3)c2c(=O)n1-c1ccccc1 [II-5, (S)-8-(1-methyl-1H-pyrazol-4-yl)-2-phenyl-3-(1-(pyrazolo[1,5-a]pyrimidin-7-ylamino)ethyl)isoquinolin-1(2H)-one] | 1 to 10 | 1 to 10 |  | < 0.1
Cc1cccc2cc([C@H](C)Nc3ncnc4cccnc34)n(-c3cccc(F)c3)c(=O)c12 [Compound I-70] | 1 to 10 | 1 to 10 |  | < 0.1
C[C@H](Nc1ncnc2cccnc12)c1cc2cccc(-c3cnn(C)c3)c2c(=O)n1-c1cccc(F)c1 [Compound I-25] | > 10 | 1 to 10 |  | < 0.1
Cc1ncc(-c2cccc3cc([C@H](C)Nc4nc(N)nc5cccnc45)n(-c4cccc(F)c4)c(=O)c23)cn1 [Compound I-84] | > 10 | 1 to 10 |  | < 0.1
C[C@H](Nc1cc(Cl)nn2ccnc12)c1cc2cccc(C(F)(F)F)c2c(=O)n1-c1cccc(F)c1 [III-14] | > 10 |  | 1 to 10 | 
C[C@H](Nc1ncnc2cccnc12)c1cc2cccc(Cl)c2c(=O)n1-c1ccccc1 [Compound I-2] |  | 1 to 10 |  | < 0.1
C[C@H](Nc1ccnc2cccnc12)c1cc2cccc(Cl)c2c(=O)n1-c1ccccc1 [Compound I-49] |  | 1 to 10 |  | < 0.1
C[C@H](Nc1ccnn2ccnc12)c1cc2cccc(Cl)c2c(=O)n1-c1cccc(F)c1 [II-14] |  | 1 to 10 |  | < 0.1
C[C@H](Nc1ncnc2cccnc12)c1cc2c(F)cccc2c(=O)n1-c1ccccc1 [Compound I-4] | 1 to 10 | 1 to 10 |  | < 0.1
C[C@H](Nc1ccnc2ccnn12)c1cc2cccc(-c3cnn(C)c3)c2c(=O)n1-c1cccc(F)c1 [II-9] | > 10 | 1 to 10 |  | < 0.1
C[C@H](Nc1ccnc2cccnc12)c1cc2cccc(Cl)c2c(=O)n1-c1cccc(F)c1 [Compound I-50] | 1 to 10 | 1 to 10 |  | < 0.1
COc1ccc(-c2cccc3cc([C@H](C)Nc4ncnc5cccnc45)n(-c4ccccc4)c(=O)c23)cn1 [Compound I-48] | > 10 | 1 to 10 |  | < 0.1
CNc1nc(N[C@@H](C)c2cc3cccc(Cl)c3c(=O)n2-c2ccccc2)c2ncccc2n1 [Compound I-96] | 1 to 10 | 1 to 10 |  | < 0.1
C[C@H](Nc1nc(N)nc2cccnc12)c1cc2cccc(-c3cncnc3)c2c(=O)n1-c1ccccc1 [Compound I-74] | 1 to 10 | 1 to 10 |  | < 0.1
C[C@H](Nc1nc(N)nc2cccnc12)c1cc2cccc(-c3ccnnc3)c2c(=O)n1-c1ccccc1 [Compound I-79] | 1 to 10 | 1 to 10 |  | < 0.1
C[C@H](Nc1ccnn2ccnc12)c1cc2cccc(-c3cnn(C)c3)c2c(=O)n1-c1cccc(F)c1 [II-17] | > 10 | 1 to 10 |  | < 0.1
C[C@H](Nc1c(C#N)cnc2cccnc12)c1cc2cccc(-c3cnn(C)c3)c2c(=O)n1-c1ccccc1 [Compound I-55] | > 10 |  | 1 to 10 | 
C[C@H](Nc1ncnc2cccnc12)c1cc2cccc(-c3cnn(C)c3)c2c(=O)n1C1CC1 [Compound I-24] | 1 to 10 | 1 to 10 |  | < 0.1

Now from value to molecule, other results behind:

IC50 (PI3Kβ) [µM] | IC50 (PI3Kα) [µM] | IC50 (PI3Kγ) [µM] | SMILES | EC50 (Balb/c splenic B cells) [µM]
> 10 |  | 1 to 10 | C[C@H](Nc1c(C#N)cnc2cccnc12)c1cc2cccc(C(F)(F)F)c2c(=O)n1-c1ccccc1 [III-37] | 
> 10 |  | 1 to 10 | Cc1cn2nccc(N[C@@H](C)c3cc4cccc(C(F)(F)F)c4c(=O)n3-c3ccccc3)c2n1 [III-29] | 
> 10 |  | 1 to 10 | C[C@H](Nc1ncnc2cccnc12)c1cc2scc(C(F)(F)F)c2c(=O)n1-c1ccccc1 [III-41] | < 0.1
 |  | 1 to 10 | C[C@H](Nc1ncnc2[nH]cnc12)c1cc2scc(C(F)(F)F)c2c(=O)n1-c1ccccc1 [III-40] | 
1 to 10 | 1 to 10 |  | C[C@H](Nc1ccnn2ccnc12)c1cc2cccc(C(F)(F)F)c2c(=O)n1-c1cccc(F)c1 [III-15] | < 0.1
> 10 |  | 1 to 10 | COc1nc(N[C@@H](C)c2cc3cccc(C(F)(F)F)c3c(=O)n2-c2cccc(F)c2)c2ncccc2n1 [III-43] | 
1 to 10 | 1 to 10 |  | C[C@H](Nc1ncnc2cccnc12)c1cc2cccc(C(F)(F)F)c2c(=O)n1-c1cccc(F)c1 [III-12] | < 0.1
 | 1 to 10 |  | C[C@H](Nc1ncnc(N)c1C#N)c1cc2cccc(C(F)(F)F)c2c(=O)n1-c1cccc(F)c1 [III-49] | < 0.1
> 10 |  | 1 to 10 | Cc1nc2c(N[C@@H](C)c3cc4cccc(C(F)(F)F)c4c(=O)n3-c3ccccc3)ncnc2s1 [III-26] | 
 | 1 to 10 |  | C[C@H](Nc1ccnc2ccnn12)c1cc2cccc(C(F)(F)F)c2c(=O)n1-c1ccccc1 [III-6] | < 0.1
